According to publication PMC10882719 (Frontiers in Neuroscience, 2024):
Where two headings read alike, the source gives them in different places.

Tests used:
Type in all cases: cell-based
168 GPCRs [1] = target: T1, 168 GPCRs (Homo sapiens, UniProt P18825); details: ADRA2C
T1 construct: host or cells: PathHunter cell lines
T1 sequence (P18825 1-462): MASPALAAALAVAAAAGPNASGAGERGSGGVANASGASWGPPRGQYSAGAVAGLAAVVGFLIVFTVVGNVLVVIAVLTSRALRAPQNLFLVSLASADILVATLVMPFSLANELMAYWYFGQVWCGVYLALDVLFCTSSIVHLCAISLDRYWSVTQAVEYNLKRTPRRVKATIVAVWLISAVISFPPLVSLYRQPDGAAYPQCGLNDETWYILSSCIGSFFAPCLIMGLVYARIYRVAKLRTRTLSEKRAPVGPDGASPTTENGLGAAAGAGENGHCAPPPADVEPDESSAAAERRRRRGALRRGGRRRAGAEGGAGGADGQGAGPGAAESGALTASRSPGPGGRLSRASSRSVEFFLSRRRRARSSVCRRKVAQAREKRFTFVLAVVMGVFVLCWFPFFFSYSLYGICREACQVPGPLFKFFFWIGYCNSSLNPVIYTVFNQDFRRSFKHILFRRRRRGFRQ

168 GPCRs [2] = target: T2, 168 GPCRs (Homo sapiens, UniProt P25105); details: PTAFR
T2 construct: host or cells: PathHunter cell lines
T2 sequence (P25105 whole entry): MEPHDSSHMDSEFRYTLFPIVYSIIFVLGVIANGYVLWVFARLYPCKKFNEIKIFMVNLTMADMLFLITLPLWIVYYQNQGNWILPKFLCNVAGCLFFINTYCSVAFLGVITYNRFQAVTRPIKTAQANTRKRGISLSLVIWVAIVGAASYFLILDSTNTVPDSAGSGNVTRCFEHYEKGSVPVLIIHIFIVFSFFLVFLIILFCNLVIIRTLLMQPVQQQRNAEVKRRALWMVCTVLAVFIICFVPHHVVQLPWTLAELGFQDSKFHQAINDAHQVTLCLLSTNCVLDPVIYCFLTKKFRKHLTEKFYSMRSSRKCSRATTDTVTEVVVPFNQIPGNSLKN

168 GPCRs [3] = target: T3, 168 GPCRs (Homo sapiens, UniProt P29371); details: TACR3
T3 construct: host or cells: PathHunter cell lines
T3 sequence (P29371 1-465): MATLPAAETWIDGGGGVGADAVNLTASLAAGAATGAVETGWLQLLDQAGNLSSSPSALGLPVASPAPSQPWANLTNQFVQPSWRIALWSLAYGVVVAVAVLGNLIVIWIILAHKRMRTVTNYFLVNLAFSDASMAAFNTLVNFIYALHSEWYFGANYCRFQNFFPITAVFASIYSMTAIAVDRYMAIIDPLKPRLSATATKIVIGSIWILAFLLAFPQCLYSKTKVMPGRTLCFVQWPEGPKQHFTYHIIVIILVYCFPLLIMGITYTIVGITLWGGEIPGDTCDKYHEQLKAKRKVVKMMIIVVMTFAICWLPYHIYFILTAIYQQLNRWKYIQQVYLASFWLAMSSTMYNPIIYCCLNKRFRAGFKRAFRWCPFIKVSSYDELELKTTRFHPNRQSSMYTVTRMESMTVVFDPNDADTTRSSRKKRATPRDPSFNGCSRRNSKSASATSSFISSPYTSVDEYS

168 GPCRs [4] = target: T4, 168 GPCRs (Homo sapiens, UniProt P30550); details: GRPR
T4 construct: host or cells: PathHunter cell lines
T4 sequence (P30550 whole entry): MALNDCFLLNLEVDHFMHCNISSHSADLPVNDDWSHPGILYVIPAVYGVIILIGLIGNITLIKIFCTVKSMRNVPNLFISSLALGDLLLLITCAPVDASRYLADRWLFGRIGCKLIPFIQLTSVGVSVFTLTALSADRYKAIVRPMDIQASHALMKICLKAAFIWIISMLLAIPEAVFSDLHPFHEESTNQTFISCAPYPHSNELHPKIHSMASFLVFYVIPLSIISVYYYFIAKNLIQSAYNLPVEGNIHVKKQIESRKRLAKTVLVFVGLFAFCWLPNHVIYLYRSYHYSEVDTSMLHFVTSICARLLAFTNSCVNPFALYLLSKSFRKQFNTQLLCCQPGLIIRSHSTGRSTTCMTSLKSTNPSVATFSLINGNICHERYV

168 GPCRs [5] = target: T5, 168 GPCRs (Homo sapiens, UniProt P32246)
T5 construct: host or cells: PathHunter cell lines
T5 sequence (P32246 1-355): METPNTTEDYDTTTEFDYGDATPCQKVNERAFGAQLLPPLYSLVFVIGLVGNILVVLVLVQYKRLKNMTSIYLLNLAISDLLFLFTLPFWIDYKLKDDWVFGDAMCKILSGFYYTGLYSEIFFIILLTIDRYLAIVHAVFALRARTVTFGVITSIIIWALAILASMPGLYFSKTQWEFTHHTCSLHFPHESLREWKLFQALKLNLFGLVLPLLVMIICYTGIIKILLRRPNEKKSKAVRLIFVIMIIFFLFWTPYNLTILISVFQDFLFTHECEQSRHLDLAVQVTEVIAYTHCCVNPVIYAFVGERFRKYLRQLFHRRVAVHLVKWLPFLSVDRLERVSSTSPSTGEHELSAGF

168 GPCRs [6] = target: T6, 168 GPCRs (Homo sapiens, UniProt P48039); details: MTNR1A
T6 construct: host or cells: PathHunter cell lines
T6 sequence (P48039 whole entry): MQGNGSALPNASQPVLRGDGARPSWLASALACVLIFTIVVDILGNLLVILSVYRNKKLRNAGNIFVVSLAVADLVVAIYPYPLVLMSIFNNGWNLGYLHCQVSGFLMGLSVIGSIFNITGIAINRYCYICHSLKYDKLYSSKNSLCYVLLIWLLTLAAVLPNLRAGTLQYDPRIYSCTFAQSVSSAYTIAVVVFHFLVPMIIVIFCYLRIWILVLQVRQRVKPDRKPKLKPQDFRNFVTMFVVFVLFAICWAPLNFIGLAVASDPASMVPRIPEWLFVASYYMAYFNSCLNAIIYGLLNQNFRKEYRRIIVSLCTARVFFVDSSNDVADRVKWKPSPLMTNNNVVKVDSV

168 GPCRs [7] = target: T7, 168 GPCRs (Homo sapiens, UniProt Q969F8); details: KISS1R
T7 construct: host or cells: PathHunter cell lines
T7 sequence (Q969F8 whole entry): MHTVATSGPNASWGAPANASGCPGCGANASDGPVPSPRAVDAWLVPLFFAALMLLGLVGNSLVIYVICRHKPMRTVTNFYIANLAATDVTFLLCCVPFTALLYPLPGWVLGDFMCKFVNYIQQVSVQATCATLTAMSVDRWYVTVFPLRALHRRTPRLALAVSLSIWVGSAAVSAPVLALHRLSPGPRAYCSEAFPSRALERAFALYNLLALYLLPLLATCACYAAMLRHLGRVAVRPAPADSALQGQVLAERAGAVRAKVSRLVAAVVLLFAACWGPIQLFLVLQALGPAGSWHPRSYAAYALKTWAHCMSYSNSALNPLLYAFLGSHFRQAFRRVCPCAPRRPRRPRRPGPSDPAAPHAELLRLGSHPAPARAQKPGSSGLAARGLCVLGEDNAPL

168 GPCRs [8] = target: T8, 168 GPCRs (Homo sapiens, UniProt Q96G91); details: P2RY11
T8 construct: host or cells: PathHunter cell lines
T8 sequence (Q96G91 1-374): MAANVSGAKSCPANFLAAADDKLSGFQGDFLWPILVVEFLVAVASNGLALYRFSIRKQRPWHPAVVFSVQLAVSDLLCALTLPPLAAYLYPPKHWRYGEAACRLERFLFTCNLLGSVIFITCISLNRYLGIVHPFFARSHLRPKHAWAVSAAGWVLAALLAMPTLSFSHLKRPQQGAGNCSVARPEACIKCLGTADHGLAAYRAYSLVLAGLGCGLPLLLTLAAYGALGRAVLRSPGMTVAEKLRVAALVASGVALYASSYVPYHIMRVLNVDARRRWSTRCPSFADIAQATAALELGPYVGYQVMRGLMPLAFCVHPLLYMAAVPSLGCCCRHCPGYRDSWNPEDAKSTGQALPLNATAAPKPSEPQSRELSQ

SMILES	% Agonist Activity (168 GPCRs [1]; 1 uM) [%]	% Antagonist Activity (168 GPCRs [1]; 1 uM) [%]	% Agonist Activity (168 GPCRs [1]; 10 uM) [%]	% Antagonist Activity (168 GPCRs [1]; 10 uM) [%]	% Agonist Activity (168 GPCRs [2]; Conc 1 uM) [%]	% Antagonist Activity (168 GPCRs [2]; Conc 1 uM) [%]	% Agonist Activity (168 GPCRs [2]; Conc 10 uM) [%]	% Antagonist Activity (168 GPCRs [2]; Conc 10 uM) [%]	% Agonist Activity (168 GPCRs [3]; Conc 1 uM) [%]	% Antagonist Activity (168 GPCRs [3]; Conc 1 uM) [%]	% Agonist Activity (168 GPCRs [3]; Conc 10 uM) [%]	% Antagonist Activity (168 GPCRs [3]; Conc 10 uM) [%]	% Agonist Activity (168 GPCRs [4]; 1 uM) [%]	% Antagonist Activity (168 GPCRs [4]; 1 uM) [%]	% Agonist Activity (168 GPCRs [4]; 10 uM) [%]	% Antagonist Activity (168 GPCRs [4]; 10 uM) [%]	% Agonist Activity (168 GPCRs [5]; CCR1, 1 uM) [%]	% Antagonist Activity (168 GPCRs [5]; CCR1, 1 uM) [%]	% Agonist Activity (168 GPCRs [5]; CCR1, 10 uM) [%]	% Antagonist Activity (168 GPCRs [5]; CCR1, 10 uM) [%]	also measured
CNC(C)Cc1ccc2c(c1)OCO2 (stereo not shown) [MDMA, 3,4-Methylenedioxy methamphetamine, reference compound]	3.9	16.4	6.9	38.1	0.6	11.4	0.4	12.1	0.1	14.6	1	19.1	-0.3	1.9	-0.6	1.8	13.6	-13	6.2	-7.6	% Agonist Activity (168 GPCRs [6]; 1 uM): -9.2%; % Antagonist Activity (168 GPCRs [6]; 1 uM): 18.4%; % Agonist Activity (168 GPCRs [6]; 10 uM): -9.6%; % Antagonist Activity (168 GPCRs [6]; 10 uM): 17.7%; % Agonist Activity (168 GPCRs [7]; 1 uM): -4.8%; % Antagonist Activity (168 GPCRs [7]; 1 uM): -13.9%; % Agonist Activity (168 GPCRs [7]; 10 uM): -4.3%; % Antagonist Activity (168 GPCRs [7]; 10 uM): 1.8%; % Agonist Activity (168 GPCRs [8]; Conc 1 uM): 0.3%; % Antagonist Activity (168 GPCRs [8]; Conc 1 uM): 17.9%; % Agonist Activity (168 GPCRs [8]; Conc 10 uM): 0.7%; % Antagonist Activity (168 GPCRs [8]; Conc 10 uM): 9%
CNC(C)C(=O)c1ccc2c(c1)OCO2 (stereo not shown) [methylone]	-2.5	-4.3	0.1	17.6	-1.3	2	-2.6	-6.7	0.8	-3.9	1.1	-14.3	0	0.7	-0.1	-1.4	-2.6	-8.1	3.6	-16.6	% Agonist Activity (168 GPCRs [6]; 1 uM): -12.3%; % Antagonist Activity (168 GPCRs [6]; 1 uM): 30.8%; % Agonist Activity (168 GPCRs [6]; 10 uM): -11.7%; % Antagonist Activity (168 GPCRs [6]; 10 uM): 7.8%; % Agonist Activity (168 GPCRs [7]; 1 uM): -5.5%; % Antagonist Activity (168 GPCRs [7]; 1 uM): 28.7%; % Agonist Activity (168 GPCRs [7]; 10 uM): -3.7%; % Antagonist Activity (168 GPCRs [7]; 10 uM): 14.5%; % Agonist Activity (168 GPCRs [8]; Conc 1 uM): 0.5%; % Antagonist Activity (168 GPCRs [8]; Conc 1 uM): 2.7%; % Agonist Activity (168 GPCRs [8]; Conc 10 uM): -0.3%; % Antagonist Activity (168 GPCRs [8]; Conc 10 uM): 6.6%
